Values quoted from earlier work as cited in US20070266895A1, “Aliphatic Hydrocarbon Soluble Red Dyes” (priority 2004, published 2007).

direct solubility in essentially aliphatic hydrocarbon based fuels (diesel or home heating oil): virtually no direct solubility
direct solubility in aromatic hydrocarbon containing gasolines (dry powder dye): limited direct solubility
Compound: Cc1ccccc1/N=N/c1ccc(/N=N/c2c(O)ccc3ccccc23)c(C)c1 [C.I. Solvent Red 24]
